For 9 compounds, GI50 and TGI results are on record in PubChem BioAssay (NCI).

Where “and” joins values, the source holds several entries; their conditions need not be identical. Equal values may be shown once.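 Results reflect a 48-hour exposure of cells in 96-well plates to compound at five concentrations. GI50 marks 50% less growth. TGI marks complete inhibition of growth.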 Where only a bound is given, the exact number is not on record here.

Test systems include HCT-15 colon; TK-10 renal; PC-3 prostate; OVCAR-3 ovarian; SF-295 CNS; KM12 colon; HL-60(TB) leukemia; DU-145 prostate; HOP-62 NSCLC; SNB-75 CNS.
Holding throughout (test): NCI tumour cell line growth inhibition, 48 h

Consider `CCc1ccc(C2=NN(c3ccc(S(C)(=O)=O)cc3)C(=O)CC2)cc1`, for which the GI50 is 1380 nM with HCT-15 colon; 8.31 µM in the experiment on TK-10 renal; 2.31 µM in the experiment on PC-3 prostate; 0.385 µM in the experiment on OVCAR-3 ovarian; 904 nM in the experiment with SF-295 CNS; 817 nM in the experiment with KM12 colon. Also, the GI50 in the experiment with HL-60(TB) leukemia was 1200 nM; with DU-145 prostate, 2.67 µM; with HOP-62 NSCLC it was 2.68 µM; with SNB-75 CNS, 1310 nM. Also, the TGI was more than 100 µM in the experiment on HCT-15 colon; more than 100 µM in the experiment with TK-10 renal; more than 100 µM with PC-3 prostate; 2.36 µM in the experiment on OVCAR-3 ovarian; 8.54 µM in the experiment on SF-295 CNS; more than 96.1 µM in the experiment with KM12 colon. The TGI with HL-60(TB) leukemia was 6.35 µM; with DU-145 prostate, more than 26.8 µM; with HOP-62 NSCLC it was more than 30.8 µM; with SNB-75 CNS, 6.93 µM.
Take `Oc1c(I)cc(Cl)c2cccnc12`: the GI50 with HCT-15 colon is 5480 nM and 3820 nM; in the experiment with TK-10 renal, 31.3 µM and 24 µM; in the experiment with PC-3 prostate, 4.37 µM and 4.87 µM; in the experiment on OVCAR-3 ovarian it was 5.62 µM and 21.3 µM; in the experiment on SF-295 CNS, 2620 nM and 22200 nM; with KM12 colon, 5980 nM and 18200 nM. Moreover, the GI50 is 2770 nM in the experiment with HL-60(TB) leukemia; 5.9 µM and 21.2 µM with DU-145 prostate; 4.02 µM and 4.07 µM in the experiment with HOP-62 NSCLC; 4420 nM in the experiment with SNB-75 CNS. Further, the TGI in the experiment on HCT-15 colon was > 100 µM and 38.5 µM; with TK-10 renal, > 100 µM and 73.8 µM; with PC-3 prostate, 57.5 µM and 81.6 µM; in the experiment with OVCAR-3 ovarian, 65.1 µM and 61.5 µM; in the experiment on KM12 colon, 49.9 µM and 47.7 µM; with HL-60(TB) leukemia, 6.22 µM. For the same compound, the TGI in the experiment with DU-145 prostate was > 100 µM and 50.6 µM; with HOP-62 NSCLC it was 28.5 µM and 20.1 µM; with SNB-75 CNS, more than 100 µM.
As for `C=CC(C)(O)CCC1C(=C)C(O)CC2C(C)(C)CCCC12C` (stereo not given), the TGI with HCT-15 colon is 33.3 µM; with TK-10 renal it was 47.5 µM; with PC-3 prostate, 32.2 µM; with OVCAR-3 ovarian it was 39.9 µM; in the experiment with SF-295 CNS it was 48 µM; in the experiment on KM12 colon it was 52.1 µM. For the same compound, the TGI in the experiment on HL-60(TB) leukemia was 35.9 µM; with DU-145 prostate it was 37.2 µM; with HOP-62 NSCLC, 43.6 µM; with SNB-75 CNS, more than 100 µM.
With `Cc1ccc(C(=O)N2C/C(=C/c3ccccc3)C(=O)/C(=C/c3ccccc3)C2)cc1`, the GI50 is 3130 nM in the experiment with HCT-15 colon; 20.8 µM with TK-10 renal; 6.08 µM with PC-3 prostate; 6.8 µM in the experiment with OVCAR-3 ovarian; 5360 nM in the experiment with SF-295 CNS; 1430 nM in the experiment on KM12 colon. Further, the GI50 in the experiment with HL-60(TB) leukemia is 18800 nM; in the experiment on DU-145 prostate it was 17.8 µM; in the experiment on HOP-62 NSCLC, 4.96 µM; in the experiment with SNB-75 CNS, 2580 nM. For the same compound, the TGI in the experiment on HCT-15 colon is more than 100 µM; in the experiment with TK-10 renal, 90 µM; in the experiment on PC-3 prostate, more than 100 µM; in the experiment on OVCAR-3 ovarian it was more than 100 µM; in the experiment on SF-295 CNS, more than 100 µM; in the experiment on KM12 colon, 6.94 µM. The TGI is more than 100 µM in the experiment on HL-60(TB) leukemia, more than 100 µM in the experiment with DU-145 prostate, 61.3 µM with HOP-62 NSCLC and 16.4 µM with SNB-75 CNS.
For the compound `N=C(N)c1ccc(OCCCCCOc2ccc(C(=N)N)cc2)cc1`, the GI50 with HCT-15 colon was 7570 nM; in the experiment on TK-10 renal, 8.49 µM; in the experiment on PC-3 prostate it was 6.92 µM; with OVCAR-3 ovarian, 5.25 µM; with KM12 colon, 2500 nM and 6350 nM and 14300 nM; in the experiment on HL-60(TB) leukemia it was 7340 nM. In addition, the GI50 is 5.64 µM with DU-145 prostate and 3.38 µM in the experiment with HOP-62 NSCLC. Also, the TGI was more than 100 µM in the experiment with HCT-15 colon; 18.9 µM and 27.6 µM and 48.3 µM with TK-10 renal; more than 100 µM in the experiment on PC-3 prostate; 15.4 µM and 34.9 µM and 37 µM in the experiment with OVCAR-3 ovarian; 19.7 µM and 21.3 µM and 77.1 µM with SF-295 CNS; 14.3 µM and 20.9 µM and 31 µM in the experiment with KM12 colon. The TGI in the experiment on HL-60(TB) leukemia is 24 µM and 56 µM and > 100 µM; in the experiment on DU-145 prostate it was 11.9 µM and 27.9 µM and 28.7 µM; with HOP-62 NSCLC it was 10.6 µM and 32.8 µM and 30.3 µM; in the experiment with SNB-75 CNS, 33.1 µM and 18.3 µM and > 100 µM.
With `CCC1=C(c2ccc(OC)cc2)CC[C@]2(CCNC2=O)[C@@H]1C`, the TGI is more than 88.8 µM with HCT-15 colon; more than 100 µM in the experiment on TK-10 renal; more than 77 µM in the experiment on PC-3 prostate; 61.4 µM in the experiment with OVCAR-3 ovarian; more than 100 µM with SF-295 CNS; more than 91.7 µM in the experiment on KM12 colon. Also, the TGI in the experiment on HL-60(TB) leukemia was 69.2 µM; with DU-145 prostate it was more than 100 µM; in the experiment with HOP-62 NSCLC it was more than 100 µM; with SNB-75 CNS it was more than 95.6 µM.
Regarding `Cc1ccccc1CNc1c2ccccc2nc2ccccc12`, the GI50 was 1800 nM with HCT-15 colon; 2.78 µM in the experiment with TK-10 renal; 1.88 µM in the experiment on PC-3 prostate; 2.39 µM in the experiment with OVCAR-3 ovarian; 2670 nM in the experiment with SF-295 CNS; 2950 nM with KM12 colon. Also, the GI50 is 2170 nM in the experiment on HL-60(TB) leukemia, 2.91 µM with DU-145 prostate, 3.02 µM in the experiment on HOP-62 NSCLC and 1700 nM with SNB-75 CNS. For the same compound, the TGI in the experiment with HCT-15 colon stood at 4.02 µM; in the experiment with TK-10 renal it was 11.7 µM; in the experiment with PC-3 prostate it was 8.79 µM; in the experiment with OVCAR-3 ovarian it was 5.93 µM; in the experiment on SF-295 CNS it was 11.8 µM; with KM12 colon, 10.1 µM. For the same compound, the TGI worked out at 5.06 µM in the experiment on HL-60(TB) leukemia, 10.1 µM in the experiment on DU-145 prostate, 14.6 µM in the experiment with HOP-62 NSCLC and 8.36 µM in the experiment with SNB-75 CNS.
As for `CC(C)C/C(=N\NC(=O)c1ccncc1)c1cc(Cl)ccc1O`, the GI50 in the experiment on HCT-15 colon is 93.8 nM; in the experiment on TK-10 renal it was 0.348 µM; in the experiment on PC-3 prostate, 1.01 µM; with OVCAR-3 ovarian, 0.204 µM; with SF-295 CNS, 256 nM; with KM12 colon, 389 nM. Also, the GI50 was 295 nM in the experiment with HL-60(TB) leukemia, 0.379 µM in the experiment on DU-145 prostate, 0.465 µM with HOP-62 NSCLC and 11600 nM in the experiment on SNB-75 CNS. Further, the TGI is 98.9 µM with HCT-15 colon; more than 100 µM in the experiment on TK-10 renal; 73.5 µM in the experiment with PC-3 prostate; 5.24 µM in the experiment with OVCAR-3 ovarian; 13.2 µM in the experiment with SF-295 CNS; 57.4 µM in the experiment on KM12 colon. The TGI in the experiment with HL-60(TB) leukemia is 2.26 µM; in the experiment on DU-145 prostate, 28.9 µM; in the experiment on HOP-62 NSCLC, 64.8 µM; in the experiment with SNB-75 CNS it was more than 100 µM.
On to `N#Cc1cccc(C2C3=C(COC3=O)N(CCO)c3cc4c(cc32)CCC4)c1` (stereo not given), for which the GI50 in the experiment with HCT-15 colon is 127 nM; in the experiment with TK-10 renal, 0.436 µM; in the experiment on PC-3 prostate, 0.15 µM; with OVCAR-3 ovarian it was 0.123 µM; in the experiment with SF-295 CNS, 71.6 nM; in the experiment with KM12 colon, 136 nM. Moreover, the GI50 is 132 nM in the experiment with HL-60(TB) leukemia, 0.191 µM in the experiment on DU-145 prostate, 0.25 µM in the experiment with HOP-62 NSCLC and 39.3 nM in the experiment on SNB-75 CNS. The TGI in the experiment on HCT-15 colon was more than 50 µM; in the experiment on TK-10 renal, more than 50 µM; with PC-3 prostate, more than 50 µM; in the experiment on SF-295 CNS, more than 50 µM; with KM12 colon, more than 50 µM; in the experiment on HL-60(TB) leukemia it was 0.383 µM. In addition, the TGI with DU-145 prostate is 7.29 µM; in the experiment with HOP-62 NSCLC, more than 50 µM.
